# According to US7792665B2, “Method for designing a compound based on the three dimensional structure of phosphoinositide dependent protein kinase 1 (PDK1)” (Medical Research Council, priority 2002, dated 2010):
# Where “and” joins values, the source holds several entries; their conditions need not be identical. Equal values may be shown once.
# Columns and labels:
# PDK1 [1] = target: T1, PDK1 (Homo sapiens, UniProt O15530); assay: PDK1 protein kinase assay with PDK1tide substrate and [γ-32P]ATP; assay type: biochemical; conditions: 1 μM inhibitor, 0.1 mM ATP, average of triplicate
# T1 sequence (O15530 1-556): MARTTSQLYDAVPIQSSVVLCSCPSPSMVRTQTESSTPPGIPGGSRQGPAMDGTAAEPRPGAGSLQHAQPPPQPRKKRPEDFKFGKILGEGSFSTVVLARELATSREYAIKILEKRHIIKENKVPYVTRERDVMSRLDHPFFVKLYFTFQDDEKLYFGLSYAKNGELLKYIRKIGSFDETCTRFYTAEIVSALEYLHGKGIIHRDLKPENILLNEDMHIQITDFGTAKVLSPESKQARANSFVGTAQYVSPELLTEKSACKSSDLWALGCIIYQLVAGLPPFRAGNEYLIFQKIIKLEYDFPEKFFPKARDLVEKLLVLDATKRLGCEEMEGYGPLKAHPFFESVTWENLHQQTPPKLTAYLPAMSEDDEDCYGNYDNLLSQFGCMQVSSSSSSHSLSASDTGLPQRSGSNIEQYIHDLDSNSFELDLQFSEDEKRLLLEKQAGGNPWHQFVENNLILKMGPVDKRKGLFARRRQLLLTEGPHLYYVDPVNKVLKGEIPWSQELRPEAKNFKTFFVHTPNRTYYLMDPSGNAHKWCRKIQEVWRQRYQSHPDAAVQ
# Procedure: (§1) Other protein kinases employed in Table 5, were assayed as described previously.
# A structure-based sequence alignment of known kinase structures was obtained from, which was used to validate the sequence-based sequence alignment (Table 5).
# CHK1 [2] = target: T2, CHK1 (Homo sapiens, UniProt O14757); assay: Kinase panel assay, CHK1; assay type: biochemical; conditions: 1 μM inhibitor, 0.1 mM ATP, average of triplicate
# T2 sequence (O14757 1-476): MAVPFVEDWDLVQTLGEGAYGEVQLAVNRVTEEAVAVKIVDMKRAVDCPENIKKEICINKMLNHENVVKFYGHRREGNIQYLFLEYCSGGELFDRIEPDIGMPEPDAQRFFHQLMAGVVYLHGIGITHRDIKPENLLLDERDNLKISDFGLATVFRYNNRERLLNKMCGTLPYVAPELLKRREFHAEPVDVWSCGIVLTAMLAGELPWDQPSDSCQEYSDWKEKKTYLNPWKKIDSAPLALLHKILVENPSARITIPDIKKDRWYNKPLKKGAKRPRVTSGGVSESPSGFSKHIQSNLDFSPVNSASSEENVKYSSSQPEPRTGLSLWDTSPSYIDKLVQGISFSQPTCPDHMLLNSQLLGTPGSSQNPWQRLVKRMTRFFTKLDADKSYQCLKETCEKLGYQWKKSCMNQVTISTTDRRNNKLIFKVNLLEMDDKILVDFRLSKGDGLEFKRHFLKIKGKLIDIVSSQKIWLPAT
# PKCα = PKCα (Homo sapiens, UniProt P17252); assay: Kinase panel assay, PKCα; assay type: biochemical; conditions: 1 μM inhibitor, 0.1 mM ATP, average of triplicate
# AMPK = assay: Kinase panel assay, AMPK; assay type: biochemical; conditions: 1 μM inhibitor, 0.1 mM ATP, average of triplicate
# Procedure: as §1
# PHOS.KINASE = PHOS.KINASE (Oryctolagus cuniculus, UniProt P00518); assay: Kinase panel assay, phosphorylase kinase; assay type: biochemical; conditions: 1 μM inhibitor, 0.1 mM ATP, average of triplicate
# Lck = Lck (Homo sapiens, UniProt P06239); assay: Kinase panel assay, Lck; assay type: biochemical; conditions: 1 μM inhibitor, 0.1 mM ATP, average of triplicate
# PKBΔPH = PKBΔPH (Homo sapiens, UniProt P31749); assay: biochemical; conditions: read-out: percentage of kinase activity compared to control incubations, PKBΔPH
# Procedure: as §1
# ROCK-II = ROCK-II (Homo sapiens, UniProt O75116); assay: Kinase panel assay, ROCK-II; assay type: biochemical; conditions: 1 μM inhibitor, 0.1 mM ATP, average of triplicate
# S6K1 = S6K1 (Homo sapiens, UniProt P23443); assay: Kinase panel assay, S6K1; assay type: biochemical; conditions: 1 μM inhibitor, 0.1 mM ATP, average of triplicate
# GSK3β = GSK3β (Homo sapiens, UniProt P49841); assay: Kinase panel assay, GSK3β; assay type: biochemical; conditions: 1 μM inhibitor, 0.1 mM ATP, average of triplicate
# MSK1 = MSK1 (Homo sapiens, UniProt O75582); assay: Kinase panel assay, MSK1; assay type: biochemical; conditions: 1 μM inhibitor, 0.1 mM ATP, average of triplicate
# DYRK1α = DYRK1α (Homo sapiens, UniProt Q13627); assay: Kinase panel assay, DYRK1α; assay type: biochemical; conditions: 1 μM inhibitor, 0.1 mM ATP, average of triplicate
# PKA = PKA (Homo sapiens, UniProt P17612); assay: Kinase panel assay, PKA; assay type: biochemical; conditions: 1 μM inhibitor, 0.1 mM ATP, average of triplicate
# MKK1 = MKK1 (Homo sapiens, UniProt Q02750); assay: Kinase panel assay, MKK1; assay type: biochemical; conditions: 1 μM inhibitor, 0.1 mM ATP, average of triplicate
# MAPKAP-K2 = MAPKAP-K2 (Homo sapiens, UniProt P49137); assay: Kinase panel assay, MAPKAP-K2; assay type: biochemical; conditions: 1 μM inhibitor, 0.1 mM ATP, average of triplicate
# CSK = CSK (Homo sapiens, UniProt P41240); assay: Kinase panel assay, CSK; assay type: biochemical; conditions: 1 μM inhibitor, 0.1 mM ATP, average of triplicate
# SAPK4/p38δ = SAPK4/p38δ (Homo sapiens, UniProt O15264); assay: Kinase panel assay, SAPK4/p38δ; assay type: biochemical; conditions: 1 μM inhibitor, 0.1 mM ATP, average of triplicate
# PRAK = PRAK (Homo sapiens, UniProt Q8IW41); assay: Kinase panel assay, PRAK; assay type: biochemical; conditions: 1 μM inhibitor, 0.1 mM ATP, average of triplicate
# MAPKAP-K1a = MAPKAP-K1a (Homo sapiens, UniProt Q15418); assay: Kinase panel assay, MAPKAP-K1a; assay type: biochemical; conditions: 1 μM inhibitor, 0.1 mM ATP, average of triplicate
# SGK1 = SGK1 (Homo sapiens, UniProt O00141); assay: Kinase panel assay, SGK1; assay type: biochemical; conditions: 1 μM inhibitor, 0.1 mM ATP, average of triplicate
# JNKSAPK1c = JNKSAPK1c (Homo sapiens, UniProt P45983); assay: Kinase panel assay, JNKSAPK1c; assay type: biochemical; conditions: 1 μM inhibitor, 0.1 mM ATP, average of triplicate
# SAPK2α/p38 = SAPK2α/p38 (Homo sapiens, UniProt Q16539); assay: Kinase panel assay, SAPK2α/p38; assay type: biochemical; conditions: 1 μM inhibitor, 0.1 mM ATP, average of triplicate
# SAPK2β/p38β2 = SAPK2β/p38β2 (Homo sapiens, UniProt Q15759); assay: Kinase panel assay, SAPK2β/p38β2; assay type: biochemical; conditions: 1 μM inhibitor, 0.1 mM ATP, average of triplicate
# CK2 = CK2 (Homo sapiens, UniProt P68400); assay: Kinase panel assay, CK2; assay type: biochemical; conditions: 1 μM inhibitor, 0.1 mM ATP, average of triplicate
# CK1 = assay: Kinase panel assay, CK1; assay type: biochemical; conditions: 1 μM inhibitor, 0.1 mM ATP, average of triplicate
# NEK6 = NEK6 (Homo sapiens, UniProt Q9HC98); assay: Kinase panel assay, NEK6; assay type: biochemical; conditions: 1 μM inhibitor, 0.1 mM ATP, average of triplicate
# PDK1 [3] = target: T1, PDK1; conditions: literature [21]; cited from earlier work
# CHK1 [4] = target: T2, CHK1; conditions: literature [20]; cited from earlier work
# Sequence of SGK1 (O00141 whole entry): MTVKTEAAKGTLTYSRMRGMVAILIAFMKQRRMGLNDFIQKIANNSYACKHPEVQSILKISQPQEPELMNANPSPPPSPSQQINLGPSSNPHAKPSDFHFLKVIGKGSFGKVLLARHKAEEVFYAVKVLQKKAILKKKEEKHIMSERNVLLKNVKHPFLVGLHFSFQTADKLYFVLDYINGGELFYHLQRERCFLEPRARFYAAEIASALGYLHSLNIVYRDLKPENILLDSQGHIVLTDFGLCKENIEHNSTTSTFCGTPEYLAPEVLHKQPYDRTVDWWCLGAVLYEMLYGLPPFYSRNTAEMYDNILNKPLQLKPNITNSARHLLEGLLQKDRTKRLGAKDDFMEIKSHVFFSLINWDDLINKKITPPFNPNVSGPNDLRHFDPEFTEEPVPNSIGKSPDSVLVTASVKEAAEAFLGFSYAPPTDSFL
# Sequence of MSK1 (O75582 whole entry): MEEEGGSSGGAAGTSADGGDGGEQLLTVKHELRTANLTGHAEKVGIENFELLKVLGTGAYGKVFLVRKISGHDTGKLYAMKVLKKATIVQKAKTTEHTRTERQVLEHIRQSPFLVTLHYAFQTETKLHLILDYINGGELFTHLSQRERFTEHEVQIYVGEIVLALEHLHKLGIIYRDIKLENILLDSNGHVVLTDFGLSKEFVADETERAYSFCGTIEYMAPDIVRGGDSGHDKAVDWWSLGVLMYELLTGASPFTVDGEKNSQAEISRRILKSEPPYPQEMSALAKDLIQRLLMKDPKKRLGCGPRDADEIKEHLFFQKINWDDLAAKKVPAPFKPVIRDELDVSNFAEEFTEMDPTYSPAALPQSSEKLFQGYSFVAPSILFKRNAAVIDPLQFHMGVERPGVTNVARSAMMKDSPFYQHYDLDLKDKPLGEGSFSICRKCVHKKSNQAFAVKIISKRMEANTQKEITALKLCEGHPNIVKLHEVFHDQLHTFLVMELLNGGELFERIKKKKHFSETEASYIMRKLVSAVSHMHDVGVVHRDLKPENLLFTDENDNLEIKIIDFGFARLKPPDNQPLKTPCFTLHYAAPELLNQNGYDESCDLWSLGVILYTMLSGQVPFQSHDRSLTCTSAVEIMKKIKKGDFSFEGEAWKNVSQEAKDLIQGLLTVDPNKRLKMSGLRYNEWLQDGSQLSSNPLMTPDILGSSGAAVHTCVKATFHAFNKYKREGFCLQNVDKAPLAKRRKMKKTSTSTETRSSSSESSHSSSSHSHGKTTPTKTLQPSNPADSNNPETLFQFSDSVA
# Sequence of PKBΔPH (P31749 118-480 limits assumed, stated change not applied): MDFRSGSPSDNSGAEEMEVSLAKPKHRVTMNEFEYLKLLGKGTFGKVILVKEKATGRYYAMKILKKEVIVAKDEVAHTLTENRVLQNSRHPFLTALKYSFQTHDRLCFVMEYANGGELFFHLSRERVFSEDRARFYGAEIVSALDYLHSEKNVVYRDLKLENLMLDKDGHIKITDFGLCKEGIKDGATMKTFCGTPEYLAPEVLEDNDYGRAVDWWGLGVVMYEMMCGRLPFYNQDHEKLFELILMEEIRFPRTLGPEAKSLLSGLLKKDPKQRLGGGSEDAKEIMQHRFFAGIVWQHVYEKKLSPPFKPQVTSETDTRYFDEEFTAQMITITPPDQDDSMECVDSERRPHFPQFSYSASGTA
# Sequence of S6K1 (P23443 whole entry): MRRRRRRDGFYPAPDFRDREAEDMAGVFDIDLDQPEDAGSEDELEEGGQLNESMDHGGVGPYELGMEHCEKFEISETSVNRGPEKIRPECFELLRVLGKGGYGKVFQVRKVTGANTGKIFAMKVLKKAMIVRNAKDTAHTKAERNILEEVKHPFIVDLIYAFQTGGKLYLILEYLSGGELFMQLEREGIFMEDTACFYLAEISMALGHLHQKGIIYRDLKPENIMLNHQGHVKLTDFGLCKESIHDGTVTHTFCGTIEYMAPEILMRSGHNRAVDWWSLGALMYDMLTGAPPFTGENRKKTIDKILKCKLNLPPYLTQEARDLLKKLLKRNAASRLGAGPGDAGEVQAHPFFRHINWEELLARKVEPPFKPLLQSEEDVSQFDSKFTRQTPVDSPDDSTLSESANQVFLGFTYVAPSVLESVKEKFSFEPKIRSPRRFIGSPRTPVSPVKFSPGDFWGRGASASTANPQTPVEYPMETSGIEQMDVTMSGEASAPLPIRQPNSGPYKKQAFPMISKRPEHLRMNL
# Sequence of SAPK2α/p38 (Q16539 whole entry): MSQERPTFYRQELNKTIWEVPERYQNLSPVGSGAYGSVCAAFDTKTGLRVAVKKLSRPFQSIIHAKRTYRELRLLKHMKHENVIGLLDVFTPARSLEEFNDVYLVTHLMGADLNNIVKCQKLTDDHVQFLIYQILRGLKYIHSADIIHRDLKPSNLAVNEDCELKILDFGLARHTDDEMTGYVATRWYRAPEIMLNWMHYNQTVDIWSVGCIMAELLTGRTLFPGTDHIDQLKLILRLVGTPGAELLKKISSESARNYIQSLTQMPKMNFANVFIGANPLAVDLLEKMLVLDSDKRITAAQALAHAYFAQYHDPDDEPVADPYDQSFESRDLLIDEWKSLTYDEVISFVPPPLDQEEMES
# Sequence of SAPK4/p38δ (O15264 whole entry): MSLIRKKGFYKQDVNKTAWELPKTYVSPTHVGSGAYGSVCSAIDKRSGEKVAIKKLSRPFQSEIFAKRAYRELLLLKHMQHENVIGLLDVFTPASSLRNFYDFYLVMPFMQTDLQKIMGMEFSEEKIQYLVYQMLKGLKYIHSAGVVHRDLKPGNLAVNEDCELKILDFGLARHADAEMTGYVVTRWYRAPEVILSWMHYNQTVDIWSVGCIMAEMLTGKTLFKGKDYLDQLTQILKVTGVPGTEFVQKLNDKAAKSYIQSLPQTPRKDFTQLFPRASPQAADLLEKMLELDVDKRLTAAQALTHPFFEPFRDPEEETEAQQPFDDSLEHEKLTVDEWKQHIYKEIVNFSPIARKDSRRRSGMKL
# Sequence of MAPKAP-K2 (P49137 whole entry, species assumed): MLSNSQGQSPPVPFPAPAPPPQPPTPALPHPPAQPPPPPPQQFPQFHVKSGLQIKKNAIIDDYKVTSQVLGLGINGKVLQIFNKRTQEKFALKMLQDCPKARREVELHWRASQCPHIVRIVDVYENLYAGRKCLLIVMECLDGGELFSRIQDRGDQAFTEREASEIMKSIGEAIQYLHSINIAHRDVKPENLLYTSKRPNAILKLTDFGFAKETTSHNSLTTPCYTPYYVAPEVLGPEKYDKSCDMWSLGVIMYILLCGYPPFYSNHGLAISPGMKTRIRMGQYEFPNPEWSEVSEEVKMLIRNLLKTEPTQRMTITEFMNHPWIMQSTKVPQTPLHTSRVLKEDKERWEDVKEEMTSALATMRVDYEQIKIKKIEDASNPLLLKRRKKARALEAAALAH
# Sequence of PRAK (Q8IW41 whole entry, species assumed): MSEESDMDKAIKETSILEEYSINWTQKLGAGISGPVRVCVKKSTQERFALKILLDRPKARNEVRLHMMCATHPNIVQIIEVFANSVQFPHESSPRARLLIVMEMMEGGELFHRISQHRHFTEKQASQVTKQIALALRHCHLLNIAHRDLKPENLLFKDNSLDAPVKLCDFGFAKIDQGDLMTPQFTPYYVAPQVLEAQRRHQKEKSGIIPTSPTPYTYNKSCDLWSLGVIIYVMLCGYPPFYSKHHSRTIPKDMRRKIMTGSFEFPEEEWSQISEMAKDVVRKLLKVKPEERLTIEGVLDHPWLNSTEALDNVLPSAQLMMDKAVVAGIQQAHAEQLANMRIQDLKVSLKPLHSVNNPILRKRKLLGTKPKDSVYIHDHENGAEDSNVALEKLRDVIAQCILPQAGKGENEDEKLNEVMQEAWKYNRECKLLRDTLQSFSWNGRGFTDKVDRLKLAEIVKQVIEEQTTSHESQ
# Sequence of GSK3β (P49841 whole entry, species assumed): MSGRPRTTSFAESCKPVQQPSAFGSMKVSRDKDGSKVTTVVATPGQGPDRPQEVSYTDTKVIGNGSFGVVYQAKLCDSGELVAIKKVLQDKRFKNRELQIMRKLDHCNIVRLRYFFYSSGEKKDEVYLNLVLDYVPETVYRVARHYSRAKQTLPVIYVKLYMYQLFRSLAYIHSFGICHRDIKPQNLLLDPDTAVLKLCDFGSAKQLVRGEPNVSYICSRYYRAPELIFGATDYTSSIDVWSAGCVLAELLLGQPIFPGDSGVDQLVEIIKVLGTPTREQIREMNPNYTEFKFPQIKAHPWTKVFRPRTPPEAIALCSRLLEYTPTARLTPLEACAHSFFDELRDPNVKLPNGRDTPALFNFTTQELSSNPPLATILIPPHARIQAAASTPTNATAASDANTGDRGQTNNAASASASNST
smiles,measurement,setting,value
"CN[C@@H]1C[C@H]2O[C@@](C)([C@@H]1OC)n1c3ccccc3c3c4c(c5c6ccccc6n2c5c31)C(=O)N[C@H]4O [UCN-01, 7-hydroxyl staurosporine]","percentage of kinase activity compared to control incubations, PDK1",PDK1 [1],0 ± 1%
same,"percentage of kinase activity compared to control incubations, CHK1",CHK1 [2],1 ± 0%
same,"percentage of kinase activity compared to control incubations, PKCα",PKCα,1 ± 0%
same,"percentage of kinase activity compared to control incubations, AMPK",AMPK,1 ± 1%
same,"percentage of kinase activity compared to control incubations, PHOS.KINASE",PHOS.KINASE,1 ± 2%
same,"percentage of kinase activity compared to control incubations, Lck",Lck,3 ± 1%
same,remaining activity at 1 µM,PKBΔPH,9 ± 1%
same,"percentage of kinase activity compared to control incubations, ROCK-II",ROCK-II,13 ± 2%
same,"percentage of kinase activity compared to control incubations, S6K1",S6K1,21 ± 4%
same,"percentage of kinase activity compared to control incubations, GSK3β",GSK3β,25 ± 5%
same,"percentage of kinase activity compared to control incubations, MSK1",MSK1,11% and 11 ± 0%
same,"percentage of kinase activity compared to control incubations, DYRK1α",DYRK1α,15 ± 2%
same,"percentage of kinase activity compared to control incubations, PKA",PKA,27 ± 2%
same,"percentage of kinase activity compared to control incubations, MKK1",MKK1,53 ± 1%
same,"percentage of kinase activity compared to control incubations, MAPKAP-K2",MAPKAP-K2,60 ± 1%
same,"percentage of kinase activity compared to control incubations, CSK",CSK,58 ± 3%
same,"percentage of kinase activity compared to control incubations, SAPK4/p38δ",SAPK4/p38δ,100 ± 7%
same,"percentage of kinase activity compared to control incubations, PRAK",PRAK,89 ± 4%
same,"percentage of kinase activity compared to control incubations, MAPKAP-K1a",MAPKAP-K1a,1 ± 1%
same,"percentage of kinase activity compared to control incubations, SGK1",SGK1,25% and 22 ± 4%
same,"percentage of kinase activity compared to control incubations, JNKSAPK1c",JNKSAPK1c,112 ± 6%
same,"percentage of kinase activity compared to control incubations, SAPK2α/p38",SAPK2α/p38,107 ± 5%
same,"percentage of kinase activity compared to control incubations, SAPK2β/p38β2",SAPK2β/p38β2,106 ± 4%
same,"percentage of kinase activity compared to control incubations, CK2",CK2,102 ± 11%
same,"percentage of kinase activity compared to control incubations, CK1",CK1,96 ± 0%
same,"percentage of kinase activity compared to control incubations, NEK6",NEK6,80 ± 7%
same,"inhibition of PDK1, recent reports",PDK1 [3],low nM range
same,"inhibition of Chk1, recent reports",CHK1 [4],low nM range
